# Laboratory results reported in paper PMC8783508, “A novel D-amino acid peptide with therapeutic potential (ISAD1) inhibits aggregation of neurotoxic disease-relevant mutant Tau and prevents Tau toxicity in vitro” (Alzheimer's Research & Therapy, 2022).
# Non-standard residues stand in square brackets, D forms with d. Residues, ends and D or L forms follow the SMILES beside them.
# Columns and labels:
# Tau^RDΔK = biological target: T1, Tau^RDΔK (Homo sapiens, UniProt P10636, DEL597-597); assay: Pelleting assay and western blot, Tau^RDΔK; format: biochemical; conditions: 10 μM Tau, 100 μM peptide, 24 h, 61,000 rpm 60 min, K9JA western blot
# T1 construct: Tau^RDΔK Pro-aggregant repeat domain Tau mutant ΔK280; made in house
# T1 sequence (P10636 with tags, fused parts or gaps DEL597-597): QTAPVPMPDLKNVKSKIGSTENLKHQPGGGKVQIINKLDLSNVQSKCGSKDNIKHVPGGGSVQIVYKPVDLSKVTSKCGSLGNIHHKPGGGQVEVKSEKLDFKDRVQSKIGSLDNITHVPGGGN
# Experimental: After the ThS assay (end time point, 24 h), 70 μl of each sample (pooled together from 2 wells) was centrifuged in a Beckmann coulter (Optima Max Ultra Centrifuge, TLA 100.3 rotor) at 61,000 rpm for 60 min at 4 °C. After centrifugation, the supernatant was separated from the pellet. Then, the pellet was dissolved in BES buffer in an equal volume as the supernatant. For the following western blot, 12-μl samples were mixed with 3-μl SDS-sample buffer (5x), heated for 5 min at 95 °C, and loaded onto a 8–16% SDS tris-glycine-gel (BioRad, Feldkirchen, Germany). The proteins were transferred to a polyvinylidene fluoride (PVDF) membrane. After the transfer, the membrane was blocked in 5% non-fat dry milk. After washing the membrane three times for 10 min with TBST, the primary pan-Tau K9JA antibody (1:5000; Agilent, Waldbronn, Germany) was incubated for 1 h at RT with gentle agitation, followed by again 3-times washing with TBST. For detection on western blot, the secondary antibody (goat anti-rabbit HRP, Agilent, Waldbronn, Germany) was incubated in a 1:2000 dilution for 1 h at RT with shaking. […] The quantification of intensities was performed using ImageJ.
# N2a-Tau^RDΔK cells [1] = assay: MTT cytotoxicity of the peptides alone; format: cell-based; conditions: 25, 50, 100, 250 μM peptide, 24 h, n = 3
# Experimental: (§1) Cell viability was analyzed in accordance with the manufacturer’s protocol (Roche Diagnostics, Mannheim, Germany; cell proliferation kit II (MTT)). This assay is based on the cleavage of the yellow tetrazolium salt MTT into purple formazan dye by metabolic active cells. The color changes only in viable cells and can be directly quantified using a scanning multiwell spectrophotometer. In all experiments, the cells were grown as described previously. The cells (25,000 cells/well or 80% confluence) were plated on poly D-lysine-coated 96-well plates (Greiner Bio-One GmbH, Frickenhausen, Germany) for stronger attachment from overnight to 24 h at 37 °C. Fibrillized Tau^RDΔK was generated by incubating 200 μM Tau^RDΔK in BES buffer at 37 °C for 24 h in the presence of 2 mM D-peptides (Tau^RDΔK:peptide = 1:10). Successful fibrillization was verified using ThS (5 μM Tau^RDΔK, 10 μM ThS) measurement. The aggregated Tau^RDΔK (10 μM final concentration), Tau^RDΔK (10 μM) + peptide (100 μM) samples (ISAD1 and ISAD1rev), buffer only (negative control, set to 100% cell viability), and TritonX-100 (2%, cytotoxic agent, positive control) were incubated on N2a-Tau^RDΔK cells (100 μl solution) for another 24 h. The cell viability was measured in accordance with the manufacturer’s protocol.
# A MTT-based cytotoxicity assay in the presence of ISAD1 and ISAD1rev peptides. […]
# N2a-Tau^RDΔK cells [2] = assay: MTT, toxicity of externally added Tau^RDΔK aggregates; format: cell-based; conditions: Tau^RDΔK pre-incubated with peptide 1:10, 24 h, 37 °C; 10 μM Tau, 100 μM peptide final, 24 h on cells, n = 3
# Experimental: as §1
# N2a-Tau^RDΔK cells [3] = assay: LDH release, externally added Tau^RDΔK aggregates; format: cell-based; conditions: 10 μM Tau, 100 μM peptide final, pre-incubated, 24 h on cells, n = 3
# Experimental: N2a cells expressing Tau^RDΔK were plated on poly D-lysine-coated 96-well plates with a density of 25,000 cells/well. At 70 to 80% confluence, the cells were treated for 24 h with various concentrations of D-peptides (25, 50, 100, and 250 μM) or Tau^RDΔK (10 μM final concentration) in the presence of ISAD1 and ISAD1rev (100 μM final concentration). The ability of D-peptides to neutralize the toxicity of Tau^RDΔK oligomers/fibrils was investigated by measuring the amount of released LDH (Roche Diagnostics, Mannheim, Germany). Therefore, 50 μL of each well was transferred to a fresh 96-well plate and 50 μL of reagent was added followed by a 30-min incubation period at RT. Finally, 50 μL of stop solution (1 N HCl) was added and absorbance was recorded at 492 nm (TECAN spectrofluorometer, Männedorf, Switzerland). Absorbance values were corrected by background values and the percentage of LDH release was calculated.
# N2a-Tau^RDΔK cells [4] = assay: ROS measurement (DCF), externally added Tau^RDΔK aggregates; format: cell-based; conditions: 10 μM Tau, 100 μM peptide final, pre-incubated, 30 min, n = 3
# Experimental: Toxic Tau oligomers and fibrils can induce the production of superoxides and peroxy radicals in cells which can be measured with fluorescent dye dichlorodihydrofluorescein (DCF). N2a-Tau^RDΔK cells were plated on D-lysine-coated 96-well plates. At 70 to 80% confluence, the cells were washed once with warm PBS and then incubated with 20 μM of DCF (Abcam, Cambridge, UK) diluted in 1X dilution buffer for 30 min at 37 °C. After 30 min, the cells were washed once with 1X PBS. After washing, the cells were incubated with desired concentrations of different samples (10 μM oligomers/fibrils ± treated with 100 μM D-peptides or controls) for 30 min. The cytotoxic agent TBHP (tert-butylhydroperoxide) was used as the positive control. The fluorescence intensity was measured using a spectrofluorometer (Tecan, Männedorf, Switzerland; excitation at 485 nm and emission at 535 nm).
# N2a-Tau^RDΔK cells [5] = assay: LDH release, intracellularly expressed Tau^RDΔK (Dox induced); format: cell-based; conditions: 1 μg/ml doxycycline, peptide 25, 50, 100, 250 μM, n = 2
# Experimental: After the N2a-Tau^RDΔK cells reached the desired confluence (25,000 cells/well or 80%), intracellular Tau^RDΔK expression was induced by the addition of 1 μg/ml Dox. The cells were plated on poly D-lysine-coated 96-well plates (Greiner Bio-One GmbH, Frickenhausen, Germany) and treated with ISAD1 and ISAD1rev in a concentration range of 25 to 250 μM. TritonX-100 (2%) was used as a positive control. The incubation and Tau^RDΔK expression time was 72 h. Following incubation, cell viability was studied by measuring MTT and LDH release in accordance with the manufacturer’s protocol.
structure (smiles),measurement,setting,value
CC(C)C[C@@H](NC(=O)[C@@H](CO)NC(=O)[C@@H](CC(C)C)NC(=O)[C@H](NC(=O)[C@@H](CC(=O)O)NC(=O)[C@@H](C)NC(=O)[C@@H](C)NC(=O)[C@H](N)CO)[C@H](C)O)C(=O)N[C@H](CCCCN)C(=O)N[C@H](Cc1ccccc1)C(=O)N[C@@H](C(=O)N[C@H](CO)C(=O)O)C(C)C [ISAD1rev] (H-[dS][dA][dA][dD][dT][dL][dS][dL][dK][dF][dV][dS]-OH; N-terminus and C-terminus assumed),Distribution of Tau^RDΔK between pellet and supernatant,Tau^RDΔK,only apparent in the pellet
same,"Cytotoxicity, MTT",N2a-Tau^RDΔK cells [1],do not induce toxic effects
same,"Effect on toxicity of Tau aggregates, cell viability (MTT)",N2a-Tau^RDΔK cells [2],preserving cell viability
same,"Effect on toxicity of Tau aggregates, LDH release",N2a-Tau^RDΔK cells [3],Low LDH release levels
same,"Effect on toxicity of Tau aggregates, ROS level",N2a-Tau^RDΔK cells [4],reducing intracellular ROS levels
same,Effect on LDH release of cells expressing Tau^RDΔK,N2a-Tau^RDΔK cells [5],Protection of cell membrane integrity
